Measured values published in patent publication US8609860B2, “Acid-labile trigger units” (KTB Tumorforschungsgesellschaft mbH, priority 2009, dated 2013).

Columns and labels:
[1] = buffer
Method: (§1) Half-lives of imine hydrolysis are determined by measuring the decrease of the concentration of the imine and/or the increase of the concentration of the hydrolysis products e.g. by fluorescence methods, HPLC, infrared spectroscopy and/or NMR spectroscopy.
(§2) For example, in the case of compounds comprising above groups Ar and the fluorescent dye AMC (cf. FIG. 3), half-lives of imine hydrolysis are determined by measuring the increase in fluorescence that corresponds to the release of AMC from the model compounds.
(§3) • 200 μL solution per well; • Wavelength: λex=390 nm, λem=460 nm; • Temperature: 37° C.

[2] = Determination of half-lives for the imine hydrolysis in model compounds (AMC release, fluorescence)
Method: as §1, §2, §3

Row | t1/2 pH 5.0 (half-life of imine hydrolysis) ([1]; pH 5) | t1/2 pH 7.4 (half-life of imine hydrolysis) ([1]; pH 7.4) | half-life ([2]; acetate buffer, pH 5) | half-life ([2]; phosphate buffer, pH 7.4) | Compound
1 | 173 min | 365 h | – | – | 4-(Perfluorobenzylideneamino)benzyl 4-methylcoumarin-7-ylcarbamate [Compound 6]
2 | – | – | 0.567 h | 8 h | Cc1cc(=O)oc2cc(NC(=O)OCc3ccc(N=Cc4ccccc4)cc3)ccc12 [Compound 4, 4-(Benzylideneamino)benzyl 4-methylcoumarin-7-ylcarbamate]
3 | – | – | 0.567 h | 89 h | Cc1cc(=O)oc2cc(NC(=O)OCc3ccc(N=Cc4c(F)c(F)cc(F)c4F)cc3)ccc12 [Compound 5, 4-(2,3,5,6-Tetrafluorobenzylideneamino)benzyl 4-methylcoumarin-7-ylcarbamate]
